Results: patent US10285989B2, “Pyrimidinone amide compounds as PDE2 inhibitors” (Merck Sharp & Dohme Corp., priority 2015, dated 2019)
Like-named read-outs stand apart in the source and are kept apart here.

Key:
[1] = molecular target: P-glycoprotein (P-gp, rat Mdr1a) (Rattus norvegicus, UniProt Q6PSM0); test: P-gp transport, experimental BA/AB ratio, rat LLC-Mdr1a; assay type: in vitro ADME; conditions: LLC-PK1; rat LLC-Mdrla; 1 μM substrate concentration
Text: (§1) See Doan et al. “Passive permeability and P-glycoprotein-mediated efflux differentiate central nervous system (CNS) and non-CNS marketed drugs”, J. Pharm. Exper. […] Desirable human BA/AB ratio is less than 2.0. […] See, for example, Desai, et al. Integration of in Silico and in Vitro Tools for Scaffold Optimization during Drug Discovery: Predicting P-glycoprotein Efflux” Mol. Pharmac.

[2] = molecular target: human PDE2A1 (Homo sapiens (Human), UniProt O00408); test: PDE2 IMAP FP inhibition assay, human PDE2A1 (selectivity panel format); assay type: biochemical
Chain of human PDE2A1 (O00408 other isoform, or with tags, fused parts or gaps): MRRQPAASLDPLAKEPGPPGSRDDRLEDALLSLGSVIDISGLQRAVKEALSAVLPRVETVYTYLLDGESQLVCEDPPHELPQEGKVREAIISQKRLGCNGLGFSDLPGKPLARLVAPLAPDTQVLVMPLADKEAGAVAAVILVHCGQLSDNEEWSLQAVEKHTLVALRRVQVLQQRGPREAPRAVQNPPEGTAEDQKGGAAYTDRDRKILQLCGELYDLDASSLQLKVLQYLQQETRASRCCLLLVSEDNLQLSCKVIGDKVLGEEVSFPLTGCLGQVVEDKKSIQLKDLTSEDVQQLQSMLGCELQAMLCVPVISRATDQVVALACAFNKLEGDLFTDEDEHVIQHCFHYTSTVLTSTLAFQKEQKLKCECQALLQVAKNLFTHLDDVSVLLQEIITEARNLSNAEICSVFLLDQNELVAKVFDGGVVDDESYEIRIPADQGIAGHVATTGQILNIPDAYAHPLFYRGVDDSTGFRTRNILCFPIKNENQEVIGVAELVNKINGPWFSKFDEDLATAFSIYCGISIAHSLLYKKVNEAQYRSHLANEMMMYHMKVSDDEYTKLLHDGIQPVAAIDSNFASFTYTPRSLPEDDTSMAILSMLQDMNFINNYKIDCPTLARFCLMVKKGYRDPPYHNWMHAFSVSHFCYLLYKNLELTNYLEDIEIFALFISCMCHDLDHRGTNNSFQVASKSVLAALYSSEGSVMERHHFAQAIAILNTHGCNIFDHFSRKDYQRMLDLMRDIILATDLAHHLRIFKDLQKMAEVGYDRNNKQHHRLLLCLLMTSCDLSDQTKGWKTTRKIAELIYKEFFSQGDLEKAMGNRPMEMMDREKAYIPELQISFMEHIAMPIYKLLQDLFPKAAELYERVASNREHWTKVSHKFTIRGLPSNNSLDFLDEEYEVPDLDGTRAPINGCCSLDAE
In short: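 Enzyme dosed to give about 20% substrate turnover acts for 60 min at room temperature on 50 nM FAM-cAMP plus 1000 nM cGMP (Tris pH 7.2, MgCl2, DTT, Tween-20 buffer). IMAP binding solution then stops the reaction; after 1 h, polarization is measured from parallel and perpendicular fluorescence.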

[3] = molecular target: P-glycoprotein (P-gp) (Homo sapiens (Human), UniProt P08183); test: P-gp transport, experimental BA/AB ratio, human; assay type: in vitro ADME; conditions: LLC-PK1, 1 μM substrate concentration
Chain of P-glycoprotein (P-gp) (P08183 whole entry): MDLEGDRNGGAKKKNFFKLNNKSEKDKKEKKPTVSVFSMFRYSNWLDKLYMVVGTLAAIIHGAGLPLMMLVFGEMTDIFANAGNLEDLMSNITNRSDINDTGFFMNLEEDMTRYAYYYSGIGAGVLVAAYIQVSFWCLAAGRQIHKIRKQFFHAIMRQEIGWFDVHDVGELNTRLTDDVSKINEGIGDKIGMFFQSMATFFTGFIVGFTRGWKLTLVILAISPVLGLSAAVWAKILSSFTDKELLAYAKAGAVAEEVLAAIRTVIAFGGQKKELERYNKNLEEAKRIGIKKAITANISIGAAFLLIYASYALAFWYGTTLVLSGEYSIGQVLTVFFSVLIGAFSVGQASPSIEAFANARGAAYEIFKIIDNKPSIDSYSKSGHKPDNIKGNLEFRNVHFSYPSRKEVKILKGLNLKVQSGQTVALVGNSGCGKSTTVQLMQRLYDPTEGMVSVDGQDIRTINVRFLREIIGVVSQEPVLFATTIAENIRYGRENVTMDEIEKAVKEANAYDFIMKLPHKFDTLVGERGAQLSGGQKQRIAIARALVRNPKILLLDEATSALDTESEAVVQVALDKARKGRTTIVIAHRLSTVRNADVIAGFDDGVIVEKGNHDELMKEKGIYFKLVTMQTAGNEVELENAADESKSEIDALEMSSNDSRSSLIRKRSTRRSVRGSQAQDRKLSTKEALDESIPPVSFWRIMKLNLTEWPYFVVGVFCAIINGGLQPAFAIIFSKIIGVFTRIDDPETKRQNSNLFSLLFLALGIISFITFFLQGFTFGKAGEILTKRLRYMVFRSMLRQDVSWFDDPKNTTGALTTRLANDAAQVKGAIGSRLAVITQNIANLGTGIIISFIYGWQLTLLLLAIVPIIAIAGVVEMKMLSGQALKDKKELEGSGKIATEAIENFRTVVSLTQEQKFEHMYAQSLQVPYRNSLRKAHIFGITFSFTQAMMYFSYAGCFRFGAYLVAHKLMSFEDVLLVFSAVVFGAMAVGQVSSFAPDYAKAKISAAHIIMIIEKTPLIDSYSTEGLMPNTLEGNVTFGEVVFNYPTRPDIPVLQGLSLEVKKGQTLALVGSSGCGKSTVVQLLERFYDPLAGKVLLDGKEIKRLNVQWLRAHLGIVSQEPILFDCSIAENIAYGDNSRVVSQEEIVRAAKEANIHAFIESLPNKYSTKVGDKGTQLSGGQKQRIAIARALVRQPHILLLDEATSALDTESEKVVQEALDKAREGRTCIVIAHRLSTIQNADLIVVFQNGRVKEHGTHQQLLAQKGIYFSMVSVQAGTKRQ
Text: as §1

[4] = molecular target: Rhesus PDE2A3 (Macaca mulatta, UniProt B3VTJ2); test: PDE2 fluorescence polarization (IMAP FP) inhibition assay, rhesus PDE2A3; assay type: biochemical, rhesus macaque
Chain of Rhesus PDE2A3 (B3VTJ2 1-941): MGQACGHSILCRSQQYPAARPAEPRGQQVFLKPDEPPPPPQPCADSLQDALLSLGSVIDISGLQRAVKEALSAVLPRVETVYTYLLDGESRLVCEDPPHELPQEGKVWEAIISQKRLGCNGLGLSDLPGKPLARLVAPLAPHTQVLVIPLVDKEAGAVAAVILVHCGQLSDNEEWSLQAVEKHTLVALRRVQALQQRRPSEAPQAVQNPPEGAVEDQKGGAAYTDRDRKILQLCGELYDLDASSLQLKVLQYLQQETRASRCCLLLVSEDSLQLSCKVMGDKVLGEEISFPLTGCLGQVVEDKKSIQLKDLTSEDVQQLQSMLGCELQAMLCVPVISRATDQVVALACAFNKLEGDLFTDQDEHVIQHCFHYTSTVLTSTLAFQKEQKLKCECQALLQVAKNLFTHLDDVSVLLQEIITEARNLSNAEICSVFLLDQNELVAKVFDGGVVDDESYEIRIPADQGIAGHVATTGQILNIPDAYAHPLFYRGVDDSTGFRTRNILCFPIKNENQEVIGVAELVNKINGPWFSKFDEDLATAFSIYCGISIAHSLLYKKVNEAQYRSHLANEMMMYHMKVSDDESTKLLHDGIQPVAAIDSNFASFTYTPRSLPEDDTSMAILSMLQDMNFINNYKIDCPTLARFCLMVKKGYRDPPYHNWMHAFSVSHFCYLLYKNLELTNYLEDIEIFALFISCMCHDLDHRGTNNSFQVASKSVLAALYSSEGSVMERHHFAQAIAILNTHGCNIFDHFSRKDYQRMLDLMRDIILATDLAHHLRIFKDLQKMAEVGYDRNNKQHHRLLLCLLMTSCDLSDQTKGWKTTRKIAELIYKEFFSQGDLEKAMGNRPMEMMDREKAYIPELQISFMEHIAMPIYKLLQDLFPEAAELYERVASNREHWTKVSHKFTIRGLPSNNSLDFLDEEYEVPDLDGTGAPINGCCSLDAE
Procedure: A Labcyte Echo 555 (Labcyte, Sunnyvale, Calif.) is used to dispense 200 nL from each well of the titration plate to the 384 well assay plate. Ten microliters of a solution of enzyme (1/2000 final dilution from aliquots; sufficient to produce 20% substrate conversion) was added to the assay plate. Next 10 uL of a separate solution of the substrate FAM-labeled cAMP (50 nM final concentration product # R^7506 from Molecular Devices) and the activator cGMP (1 uM final concentration), prepared in the assay buffer (10 mM Tris HCl, pH 7.2, 10 mM MgCl2, 0.05% NaN3 0.01% Tween-20, and 1 mM DTT) was added to the assay plate and shaken to mix. The reaction is allowed to proceed at room temperature for 60 minutes. A binding solution is then made from the kit components, comprised of 80% Solution A, 20% Solution B and binding reagent at a volume of 1/600 the total binding solution. The enzymatic reaction is stopped by addition of 60 μL of the binding solution to each well of the assay plates and the plates are sealed and shaken for 30 seconds. The plate was incubated at room temperature for at least one hour prior to determining the fluorescence polarization (FP). The parallel and perpendicular fluorescence of each well of the plate was measured using a Tecan Genios Pro plate reader (Tecan, Switzerland) or Perkin Elmer EnVision™ plate reader (Waltham, Mass.). Fluorescence polarization (mP) was calculated from the parallel (S) and perpendicular (P) fluorescence of each sample well and the analogous values for the median control well, containing only substrate (So and Po), using the following equation: Polarization (mP)=1000*(S/So−P/Po)/(S/So+P/Po).
Dose-inhibition profiles for each compound were characterized by fitting the mP data to a four-parameter equation given below.
An apparent (KM) for FAM-labeled cAMP of ˜10 uM was used.

[5] = Lab B, read-out: Human PDE2 Ki (nM) - Lab B
[6] = Lab B, read-out: Rhesus PDE2 Ki (nM) - Lab B
[7] = Lab A, read-out: Human PDE2 Ki (nM) - Lab A
[8] = Lab A, read-out: Rhesus PDE2 Ki (nM) - Lab A

Chain of P-glycoprotein (P-gp, rat Mdr1a) (Q6PSM0 1-1272): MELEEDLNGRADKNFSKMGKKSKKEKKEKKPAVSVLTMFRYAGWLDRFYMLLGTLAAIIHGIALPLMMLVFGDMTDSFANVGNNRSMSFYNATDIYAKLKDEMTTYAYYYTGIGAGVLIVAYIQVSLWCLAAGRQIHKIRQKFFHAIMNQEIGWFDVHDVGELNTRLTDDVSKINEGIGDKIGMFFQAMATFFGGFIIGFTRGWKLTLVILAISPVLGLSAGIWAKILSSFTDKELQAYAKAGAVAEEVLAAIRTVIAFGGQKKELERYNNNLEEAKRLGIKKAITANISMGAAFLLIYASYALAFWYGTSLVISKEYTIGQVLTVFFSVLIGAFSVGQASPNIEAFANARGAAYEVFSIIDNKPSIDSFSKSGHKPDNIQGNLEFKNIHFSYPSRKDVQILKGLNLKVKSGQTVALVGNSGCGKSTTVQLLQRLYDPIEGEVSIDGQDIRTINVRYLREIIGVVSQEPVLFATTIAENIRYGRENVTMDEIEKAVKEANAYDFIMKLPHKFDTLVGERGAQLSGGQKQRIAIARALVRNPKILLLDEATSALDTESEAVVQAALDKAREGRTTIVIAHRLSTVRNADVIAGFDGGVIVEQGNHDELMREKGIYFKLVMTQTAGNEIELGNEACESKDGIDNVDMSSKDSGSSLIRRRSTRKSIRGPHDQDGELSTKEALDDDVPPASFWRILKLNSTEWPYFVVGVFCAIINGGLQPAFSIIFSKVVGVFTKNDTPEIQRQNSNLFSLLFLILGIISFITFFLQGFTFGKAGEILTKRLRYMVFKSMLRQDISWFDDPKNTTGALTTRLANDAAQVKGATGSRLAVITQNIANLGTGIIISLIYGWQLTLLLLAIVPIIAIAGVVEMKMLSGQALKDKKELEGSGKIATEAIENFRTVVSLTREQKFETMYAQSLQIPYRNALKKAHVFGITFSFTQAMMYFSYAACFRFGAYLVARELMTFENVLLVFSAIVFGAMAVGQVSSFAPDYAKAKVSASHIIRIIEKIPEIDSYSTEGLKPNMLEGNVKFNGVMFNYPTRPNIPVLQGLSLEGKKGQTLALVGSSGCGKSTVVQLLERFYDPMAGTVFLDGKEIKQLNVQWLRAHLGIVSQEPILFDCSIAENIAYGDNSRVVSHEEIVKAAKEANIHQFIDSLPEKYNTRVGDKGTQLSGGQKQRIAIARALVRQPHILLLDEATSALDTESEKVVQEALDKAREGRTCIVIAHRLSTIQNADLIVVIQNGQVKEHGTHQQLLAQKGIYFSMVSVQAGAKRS

Compound | efflux ratio at 1 μM [1] | Ki [2, 5] [nM] | efflux ratio at 1 μM [3] | Ki [4, 6] [nM] | Ki [2, 7] [nM] | Ki [4, 8] [nM]
COCC1CCN(c2nc(C(=O)N[C@@H](c3ccc(C(F)(F)F)cc3)C(C)(C)C)cc(=O)[nH]2)C1 (single isomer, unassigned) [Example 176, (R)- or (S)-N-{(1R)-2,2-dimethyl-1-[4-(trifluoromethyl)phenyl]propyl}-2-[3-(methoxy-methyl)pyrrolidin-1-yl]-6-oxo-1,6-dihydro-pyrimidine-4-carboxamide] | 19.1 | 0.38 | 5.4 |  |  | 
CN(C)c1nc(C(=O)N[C@@H](c2ccc(OC(F)F)cc2)C2CC2)cc(=O)[nH]1 [Example 32, N-{(R)-cyclopropyl[4-(difluoromethoxy)phenyl]methyl}-2-(dimethylamino)-6-oxo-1,6-dropyrimidine-4-carboxamide] |  | 5.3 | 1.1 | 6.4 |  | 
CC(C)[C@@H](NC(=O)c1cc(=O)[nH]c(N(C)C)n1)c1ccc(OC(F)F)cc1 [Example 33, N-{(1R)-1-[4-(difluoromethoxy)phenyl]-2-methylpropyl}-2-(dimethylamino)-6-oxo-1,6-dihydropyrimidine-4-carboxamide] |  | 2 | 1.3 | 2.7 |  | 
CN(C)c1nc(C(=O)N[C@@H](c2ccc(S(F)(F)(F)(F)F)cc2)C(C)(C)C)cc(=O)[nH]1 [Example 38, 2-(dimethylamino)-N-{(1R)-2,2-dimethyl-1-[4-(pentafluoro-λ^6-sulfanyl)phenyl]propyl}-6-oxo-1,6-dihydropyrimidine-4-carboxamide] |  | 0.14 | 1 | 0.11 |  | 
CN(C)c1nc(C(=O)N[C@@H](c2ccc(C(F)F)c(F)c2)C2(C)CC2)cc(=O)[nH]1 [Example 59, N-[(R)-[4-(difluoromethyl)-3-fluorophenyl](1-methylcyclopropyl)methyl]-2-(dimethylamino)-6-oxo-1,6-dihydropyrimidine-4-carboxamide] | 4.2 | 2 | 0.8 |  |  | 
CC(C)[C@@H](NC(=O)c1cc(=O)[nH]c(N(C)C)n1)c1ccc(C(F)F)cc1 [Example 63, N-{(1R)-1-[4-(difluoromethyl)phenyl]-2-methylpropyl}-2-(dimethylamino)-6-oxo-1,6-dihydropyrimidine-4-carboxamide] | 10.2 | 1.9 | 1.7 |  |  | 
CN(C)c1nc(C(=O)N[C@@H](c2ccc(C(F)F)cc2)C2CC2)cc(=O)[nH]1 [Example 64, N-{(R)-cyclopropyl[4-(difluoromethyl)phenyl]methyl}-2-(dimethylamino)-6-oxo-1,6-dihydropyrimidine-4-carboxamide] | 5.6 | 7.4 | 0.8 |  |  | 
CN(C)c1nc(C(=O)N[C@@H](c2ccc(C(F)F)c(F)c2)C2CC2)cc(=O)[nH]1 [Example 66, N-{(R)-cyclopropyl[4-(difluoromethyl)-3-fluorophenyl]methyl}-2-(dimethylamino)-6-oxo-1,6-dihydropyrimidine-4-carboxamide] | 6.1 | 5 | 0.8 |  |  | 
CN(C)c1nc(C(=O)N[C@@H](c2ccc(C3CC3)cc2)C2CC2)cc(=O)[nH]1 [Example 115, N-[(R)-cyclopropyl(4-cyclopropylphenyl)methyl]-2-(dimethylamino)-6-oxo-1,6-dihydropyrimidine-4-carboxamide] |  | 0.76 | 0.3 | 1 |  | 
C[C@@H](NC(=O)c1cc(=O)[nH]c(N2CCOCC2)n1)c1ccc(C(F)(F)F)cc1 [Example 132, 2-morpholin-4-yl-6-oxo-N-{(1R)-1-[4-(trifluoromethyl)phenyl]ethyl}-1,6-dihydropyrimidine-4-carboxamide] |  |  |  |  | 30 | 60
C[C@@H](NC(=O)c1cc(=O)[nH]c(N)n1)c1ccc(C(F)(F)F)cc1 [Example 134, 2-amino-6-oxo-N-{(1R)-1-[4-(trifluoromethyl)phenyl]ethyl}-1,6-dihydropyrimidine-4-carboxamide] |  |  |  |  | 144 | 272
C[C@@H](NC(=O)c1cc(=O)[nH]c(Nc2ccccn2)n1)c1ccc(C(F)(F)F)cc1 [Example 136, 6-oxo-2-(pyridin-2-ylamino)-N-{(1R)-1-[4-(trifluoromethyl)phenyl]ethyl}-1,6-dihydropyrimidine-4-carboxamide] |  |  |  |  | 491 | 610
C[C@@H](NC(=O)c1cc(=O)[nH]c(NC2CCCC2)n1)c1ccc(C(F)(F)F)cc1 [Example 139, 2-(cyclopentylamino)-6-oxo-N-{(1R)-1-[4-(trifluoromethyl)phenyl]ethyl}-1,6-dihydropyrimidine-4-carboxamide] |  |  |  |  | 56 | 109
C[C@@H](NC(=O)c1cc(=O)[nH]c(NC2CC2)n1)c1ccc(C(F)(F)F)cc1 [Example 140, 2-(cyclopropylamino)-6-oxo-N-{(1R)-1-[4-(trifluoromethyl)phenyl]ethyl}-1,6-dihydropyrimidine-4-carboxamide] |  |  |  |  | 51 | 54
CCN(C)c1nc(C(=O)N[C@H](C)c2ccc(C(F)(F)F)cc2)cc(=O)[nH]1 [Example 141, 2-[ethyl(methyl)amino]-6-oxo-N-{(1R)-1-[4-(trifluoromethyl)phenyl]ethyl}-1,6-dihydropyrimidine-4-carboxamide] |  |  |  |  | 6 | 10.3
CCN(CC)c1nc(C(=O)N[C@H](C)c2ccc(C(F)(F)F)cc2)cc(=O)[nH]1 [Example 142, 2-(diethylamino)-6-oxo-N-{(1R)-1-[4-(trifluoromethyl)phenyl]ethyl}-1,6-dihydropyrimidine-4-carboxamide] |  |  |  |  | 16 | 23
CC(C)[C@@H](NC(=O)c1cc(=O)[nH]c(N(C)C)n1)c1ccc(OC(F)(F)F)c(F)c1 [Example 149, 2-(dimethylamino)-N-{(1R)-1-[3-fluoro-4-(trifluoro-methoxy)phenyl]-2-methylpropyl}-6-oxo-1,6-dihydropyrimidine-4-carboxamide] |  | 0.42 |  | 0.51 |  | 0.48
CC(C)(C)[C@@H](NC(=O)c1cc(=O)[nH]c(N)n1)c1ccc(C(F)(F)F)cc1 [Example 157, 2-amino-N-{(1R)-2,2-dimethyl-1-[4-(trifluoromethyl)phenyl]propyl}-6-oxo-1,6-dihydropyrimidine-4-carboxamide] | 34 | 6.3 | 13.9 |  |  | 
CNc1nc(C(=O)N[C@@H](c2ccc(C(F)(F)F)cc2)C(C)(C)C)cc(=O)[nH]1 [Example 158, N-{(1R)-2,2-dimethyl-1-[4-(trifluoromethyl)phenyl]propyl}-2-(methylamino)-6-oxo-1,6-dihydropyrimidine-4-carboxamide] | 24.4 | 0.85 | 7.8 |  |  | 
Cc1ncc2c(n1)CN(c1nc(C(=O)N[C@H](C)c3ccc(C(F)(F)F)cc3)cc(=O)[nH]1)C2 [Example 159, 2-(2-methyl-5,7-dihydro-6H-pyrrolo[3,4-d]pyrimidin-6-yl)-6-oxo-N-{(1R)-1-[4-(trifluoromethyl)phenyl]ethyl}-1,6-dihydropyrimidine-4-carboxamide] |  |  |  |  | 11 | 18
CO[C@H]1CCN(c2nc(C(=O)N[C@@H](c3ccc(C(F)(F)F)cc3)C(C)(C)C)cc(=O)[nH]2)C1 [Example 170, N-{(1R)-2,2-dimethyl-1-[4-(trifluoromethyl)phenyl]propyl}-2-[(3S)-3-methoxypyrrolidin-1-yl]-6-oxo-1,6-dihydropyrimidine-4-carboxamide] | 10.7 | 0.11 | 5.6 |  |  | 
COCCCOc1nc(C(=O)NC(C)c2ccc(C(F)(F)F)cc2)cc(=O)[nH]1 (stereo not drawn) [Example 179, 2-(3-methoxypropoxy)-6-oxo-N-{1-[4-(trifluoromethyl)phenyl]ethyl}-1,6-dihydropyrimidine-4-carboxamide] |  |  |  |  | 75 | 108
